Test results taken from publication PMC10947197, “Acid‐Resistant BODIPY Amino Acids for Peptide‐Based Fluorescence Imaging of GPR54 Receptors in Pancreatic Islets” (Angewandte Chemie (International Ed. in English), 2023).

Columns and labels:
[1] = Optical properties (absorbance, emission, extinction coefficient); format: physicochemical
From the text: Supplementary Figure 3. Det er m inat ion of t he ex t inc t i on c oef f ic i ent of T rp-BO DI PY P LUS in EtOH. V alues pr es ent e d as m eans ±S E M ( n= 6) .
S u p p l emen t ary F i gu re 4 . […]
(also on this page, place not known: 0.0 0.1 0.2 0.3 0.4 0.5 0.6 ε: 87,680 M-1cm-1 R2: 0.98 (µM) Optical density (500 nm) Determination the extinction coefficient Trp-BODIPY Values presented means±SEM (n=6). Wavelength (nm) fluorescence (RFU) Relative Supplementary Figure 4. Representative emission spectra Trp-BODIPY PLUS µM) water (black) and dioxane (green). (n=3).) […]
Sp ectro sco p y mea su rem en ts. O pt ical prop ert ies were me asure d in a Synergy H 1 B ioT ek spect rop hot om et er at t he ind icat ed co ncent rat i ons o n 96 or 38 4-we ll p lat es.
A bs or ba nc e and em is s i on s pec t r a wer e det er m i ned in t he r ange of 400– 700 nm ( ev er y 2 nm). F or liposom e exp erime nt s, phosph at idylc hol ine (P C)-bas ed li posom es wer e pur c has ed f r om Lipos om a, dilut ed in PBS, and t r ans f er r ed int o a blac k f lat -bot t om 96-well pl at e f or opt ical measur ement s. […]
Cel l exp eri men t s. W ork wit h hum an per iph eral b loo d leuk ocyt es comp lie d wit h al l releva nt et hical r egu lat io ns and inf orme d conse nt was obt a ine d. T he st udy prot oco l was approv ed by t he Medica l Regi ona l Et hics Commit t ee ( 21-EMREC - 04 1) at t he Univers ity of Edinb urgh. H uman blo od le ukocytes w ere iso late d from hea lthy volunt e ers. Brief ly, whole b loo d was ant i-c o agu lat ed w it h s odium c it r at e [ 0. 4% ( w/ v ) f inal c onc ent r at io n] and c ent r if ug ed at 350 g for 20 m i n. P lat elet-ric h plasma w as r em ov ed and aut o log ous s er um was ge ner at e d by r ec alc if ic at ion wit h CaC l2 ( 20 m M f inal co ncent rat i on). […] 5 %/ 63%/ 7 2. 9% d is c ont i nuo us gr adi ent s . […] 9 % int er f ac e. […]
HE K29 3 cel l s. Immort alize d huma n embry onic ki dney ce lls HE K 293 w ere gro wn i n DM EM wit hout py r uv at e wit h 4. 5 g L-1 of D-gluc os e, F B S , and penic ill in/ s t r ept om y c i n

[2] = Solubility: linear regression of HPLC peak area in DMSO and PBS; format: physicochemical; conditions: DMSO and PBS (≤1% DMSO), HPLC-MS with UV detection at 510 nm
Description: S u p p l emen t ary Figure 7. Nor m alized f luoresc ence em is s ion of Trp-BODIPY PLUS ( 50 µ M , buf f er ) at 37° C und er c o nt inu ous l ight ir r adi at ion ( Xe l am p, 20 W ) . λexc: 450 nm; λem: 510 nm . V alues pr es ent e d as m eans ±S D ( n= 6).
Supplementary Figure 8 . Linear r egr es s ions of t he p eak a bs or b anc e ar ea ( m A U) of T rp-BO DI PY PLUS in DMSO (re d) an d PBS (c ont a ini ng ≤ 1% DM S O , bl ue) at d if f er ent c onc ent r at i ons of t he ami no ac id. Valu es wer e det ermi ned by HPLC-MS us ing UV det ec t ion at 51 0 nm . R2 v alues : 0. 99 9 ( r ed) , 0. 99 4 ( blu e) .
(also on this page, place not known: time (min) Normalized photostability Normalized fluorescence emission (50 µM, buffer) 37°C under continuous light irradiation (Xe lamp, W) nm; nm. Values presented means±SD (n=6). µM) Peak area (mAU) DMSO) Supplementary 8. regressions the peak absorbance area (mAU) Trp-BODIPY DMSO (red) and (containing ≤1% DMSO, blue) different concentrations the amino acid. Values were determined using detection 510 nm. values: 0.999 (red), 0.994 (blue).)

Storage stability (HPLC) = format: physicochemical; conditions: 5 months in freezer (-20 °C), powder and 5 mM DMSO solution
Description: BODIPY PLUS (10 µM) in phosph ate buffer salin e (PBS, white bars) an d phosp hat idy lcho lin e li posom e susp ensi ons (gr ey bars). λ exc: 45 0 nm; λem: 51 0 nm.
V alues pr es ent e d as m ea ns ±S E M ( n= 3) .
Tr p-BODIPY P LU S (-20 °C, solid)
Tr p-BODIPY P LU S (-20 °C, DMSO)
S u p p l emen t ary F i gu re 6 . HP LC tr ac es of T r p-B O DI P Y P LUS aft er 5 m ont hs st or age in t he f r eez er as po wder ( t op) and as 5 mM DMSO s olut i ons ( bot t om ). […]

[3] = Stability analysis of Trp-BODIPY FlAAs under SPPS conditions; conditions: for Stability (purity by HPLC-MS): 70 μM; for Stability (purity by HPLC-MS) / Chemical stability (HPLC-MS): r.t.; for Chemical stability (HPLC-MS): 70 µM;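 as to all read-outs here: chemical integrity of the BODIPY-labelled tryptophan amino acids checked after exposure to reagents used in solid-phase peptide synthesis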
Description: Next, we studied the stability of Trp‐BODIPY PLUS in TFA and compared it to that of Trp‐BODIPY (Table 2).
Analysis of t he chemical st abilit y of T rp-BO DI PY and T rp-
BODIPY PLUS under conve nt ion al SPPS condit i ons. Amino aci ds were di lut ed w it h
dif f erent rea gent mixt ur es (70 µ M , f inal v olum e 10 0 uL) a nd st irre d at r. t . f or 1 h
( c ondit i ons A-B and E-H) or 5 m i n ( c o ndit i ons C an d D).
Fmoc-T rp -BO DI PY(X)2-OH
En t ry Conditions X = F X = CN

Absorbance maximum wavelength [1]: 500 nm
Emission maximum wavelength [1]: 515 nm
Extinction coefficient ([1]; in EtOH, optical density at 500 nm, n=6, fit to Beer's law): 87,680 M-1cm-1
Solubility (in words) [2]: suitable solubility
Chemical stability on storage (in words) (Storage stability (HPLC)): chemical stability for long‐term storage
Stability (purity by HPLC-MS) ([3]; 2% N2H4 in DMF, 60 min): > 95%
Stability (purity by HPLC-MS) ([3]; 95% TFA, 2.5% DTT, 60 min, DCM): > 95%
Stability (purity by HPLC-MS) ([3]; 95% TFA, 2.5% H2O, 60 min, DCM): > 95%
Stability (purity by HPLC-MS) ([3]; 95% TFA, 2.5% TIS, 60 min, DCM): > 95%
Stability (purity by HPLC-MS) ([3]; 95% TFA, 5 min, DCM): > 95%
Stability in TFA (in words) ([3]; 95% TFA, 1 h): fully resistant to TFA even after 1 h
Stability (purity by HPLC-MS) ([3]; 95% TFA, 60 min, DCM): > 95%
Stability (purity by HPLC-MS) ([3]; I2 (5 eq) in MeOH, 60 min): 6%
Stability (purity by HPLC-MS) ([3]; Pd(PPh3)4 (0.1 eq), PhSiH3 (10 eq), 60 min, DCM): > 95%
Chemical stability (HPLC-MS) ([3]; Supplementary Table 2 entry A: 1% TFA, 2.5% DTT, 1 h): > 95%
Chemical stability (HPLC-MS) ([3]; Supplementary Table 2 entry B: 5% TFA, 2.5% DTT, 1 h): > 95%
Chemical stability (HPLC-MS) ([3]; Supplementary Table 2 entry C: 95% TFA, 2.5% DTT, 5 min): > 95%
Chemical stability (HPLC-MS) ([3]; Supplementary Table 2 entry D: 20% piperidine: DMF, 5 min): > 93%
Chemical stability (HPLC-MS) ([3]; Supplementary Table 2 entry E: 5% NaHCO3 (aq), 1 h): > 95%
Chemical stability (HPLC-MS) ([3]; Supplementary Table 2 entry F: 5% Na2CO3 (aq), 1 h): > 95%
Chemical stability (HPLC-MS) ([3]; Supplementary Table 2 entry G: 1% DIPEA: DMF, 1 h): > 95%
Chemical stability (HPLC-MS) ([3]; Supplementary Table 2 entry H: 0.1 M HOBt: TFE, 1 h): > 95%
Stability (purity by HPLC-MS) ([3]; TBAF (3 eq), 60 min, DCM): > 95%
Stability to iodine (in words) ([3]; presence of iodine): degraded in the presence of iodine
Structure (SMILES): CC1=CC(C)=[N+]2C1=C(c1cccc(-c3[nH]c4ccccc4c3C[C@H](NC(=O)OCC3c4ccccc4-c4ccccc43)C(=O)O)c1)c1c(C)cc(C)n1[B-]2(C#N)C#N [Trp-BODIPY PLUS]
